Assay results as given in patent publication US12324841B2, “Methods of treating cancer with a combination of an anti-PD-1 antibody and an anti-tissue factor antibody-drug conjugate” (GENMAB A/S, priority 2018, dated 2025).
“Also recorded” adds a separate entry of the source. Non-standard residues stand in square brackets, D forms with d. Residues, ends and D or L forms follow the SMILES beside them. *: point of attachment. Dolaproine = CO[C@@H]([C@@H]1CCCN1)[C@@H](C)C(=O)O; Dil = CC[C@H](C)[C@H](NC)[C@@H](CC(=O)O)OC; X1 = C[C@@H](N*)[C@@H](O)c1ccccc1; NMeV = CN[C@H](C(=O)O)C(C)C

Legend:
[1] = tested on: HPAFII (pancreatic carcinoma); assay: Western blot analysis of ER stress induction in HPAFII cells; type: cell-based; details: 18 hours (legend: 16 hours)
Protocol: (§1) Induction of cell death and release of ICD danger signals occurs concomitant with initiation of an ER stress response. Two Tissue Factor positive cell lines, HPAFII (pancreatic carcinoma) and MDA-MB-231 (breast cell carcinoma) were exposed to tisotumab vedotin ADC, an Isotype-MMAE ADC (H00-MMAE, IgG1 MMAE), or free MMAE for 18 hours and induction of ER stress monitored by western blot analysis. Phosphorylation of inositol-requiring transmembrane kinase/endonuclease 1 (IRE1) was detected after treatment with tisotumab vedotin ADC or MMAE free drug (FIG. 6). […] The ability for auristatins to prime the immune system to recognize tumor antigens opens the door for a myriad of combinatorial therapeutic options.

HeLa cells [2] = assay: Imaging of RFP-labeled tubulin and ER-binding dye in HeLa cells treated with MMAE; type: cell-based; details: 100 nM MMAE
Protocol: Treatment of HeLa cells with MMAE led to disassembly of the microtubule network and subsequent ER mislocalization. HeLa cells were transduced with a baculovirus encoding RFP-labeled Tubulin (CellLight Tubulin-RFP, ThermoFisher Scientific) and an ER-binding dye (ER-ID Green, Enzo Life Sciences). Cells were treated with 100 nM MMAE and imaged over time in the present of MMAE. Within 2 hours, fragmentation and disassembly of the microtubule network became evident, concurrent with the breakdown of the perinuclear organized ER lattice (FIGS. 2A and 2B). The condensed and mislocalized ER skeleton indicated severe ER stress within 8 hours.

T cells = assay: T cell activation in CSFE labeled PBMCs fed killed MDA-MB-231 cells, with or without pembrolizumab; type: cell-based, human; details: 48 hours; for T cell proliferation (CSFE dilution) / production of IFNγ / production of IL12p70: without pembrolizumab
Protocol: FIG. 8A-8C is a series of graphs in which Tissue Factor positive MDA-MB-231 cells killed with various agents were fed to CSFE labeled human peripheral blood mononuclear cells (PBMCs) in the presence or absence of the PD1 targeting antibody pembrolizumab for 48 hours and T cells activation assessed by A) decreased CSFE fluorescent indicative of T cell proliferation and B) and C) cytokine production.
Induction of the innate immune response following exposure to cancer cells undergoing ICD sets up secondary T cell activation, which can be enhanced by concomitant pembrolizumab treatment.

[3] = tested on: murine tumor cells that stably express human TF; assay: Syngeneic tumor model: immunization with drug-killed human TF positive murine tumor cells, then tumor challenge; type: in vivo, Balb/c mice; details: mice immunized with tumor cells killed by 1-5 μg per ml tisotumab vedotin or 100 nM MMAE
Protocol: Mouse tumor cells are transfected with plasmid constructs encoding human tissue factor (TF) and sgRNA-guided Cas9 nuclease (sgRNA/Cas9) to generate a murine cell line that expresses the human TF. Fluorescence activated cell sorting (FACS) yields a clonal population of murine tumor cells that stably express human TF, these cells are then treated with 1 μg to 5 μg per ml of tisotumab vedotin or 100 nM of MMAE for 4 days. In order to prepare dying cells for immunization, treated murine tumor cells are overlaid atop Histopaque, and centrifuged at 2000 g for 30 minutes. Dead and dying cells are pelleted underneath the Histopaque layer, and viability assessed by trypan blue exclusion. A sample with approximately <20% live cells as measured by trypan blue exclusion is obtained. Flash-frozen tumor cells are prepared by submerging the cells in liquid nitrogen for 10 seconds, followed by immersion in 37° C. water until completely thawed. The liquid nitrogen freeze-thaw process is repeated 5 times. Dead and dying human TF positive tumor cells are resuspended in phosphate buffered saline (PBS) and 2×10^6 cells are injected into the peritoneum of immune-competent Balb/c mice. Seven days later, mice receive a second immunization with dead and dying cells prepared in the same manner.
Fourteen days after initial immunization with the dead and dying human TF positive tumor cells, mice are subcutaneously implanted with 5×10^6 wild-type tumor cells and monitored for tumor growth. […] As these effects occur in the absence of any administered therapeutic agent, the administration of cells killed by tisotumab vedotin or MMAE is sufficient to generate long-lasting protective immune memory against subsequent tumor cell challenge. Protective immune memory is amplified by treating these mice with tisotumab vedotin in combination with an antibody that binds to murine PD-1.

[4] = tested on: Tissue Factor positive cell lines; assay: Cell death and release of ATP and HMGB1 from Tissue Factor positive cell lines; type: cell-based
Description: Auristatin ADC payloads disrupt the microtubule networks resulting in altered ER localization and function, which ultimately results in ER stress.

[5] = tested on: CD14+ monocyte/macrophages; assay: Monocyte/macrophage activation in PBMCs fed killed MDA-MB-231 cells; type: cell-based, human
Description: FIGS. 7A and 7B is a series of graphs in which Tissue Factor positive MDA-MB-231 cells killed with various agents were fed to human peripheral blood mononuclear cells (PBMCs) and immune activation assessed by increased expression of activations markers on innate CD14+ monocyte/macrophages and induction of chemokine and cytokine production.
Immunogenic cell death, as mediated by MMAE, is regulated cell death that activates adaptive immune responses against antigens from dead and dying tumor cells, and allows for the generation of robust innate immune cell activation and subsequent cytotoxic T cell responses targeted towards specific tumor cell antigens. […] Furthermore, these monocyte/macrophages conditioned by ICD-killed cells promote activation of T cells, as evidenced by production of signature inflammatory cytokines associated with cytotoxic T cell responses.

[6] = tested on: MDA-MB-231 (breast cell carcinoma); assay: Western blot analysis of ER stress induction in MDA-MB-231 cells; type: cell-based; details: MDA-MB-231, 18 hours (legend: 16 hours)
Protocol: as §1

HeLa cells [7] = assay: ATP and HMGB1 secretion from HeLa cells treated with MMAE; type: cell-based; details: 100 nM MMAE, over 24 hours, vs untreated HeLa cells
Description: Induction of ICD is also characterized by the secretion of ATP and HMGB1. Extracellular ATP serves as a strong chemotactic signal, promoting immune cell migration to the tumor site. Upon arrival, extracellular HMGB1 signals through various pro-inflammatory receptors (TLR2, TLR4, RAGE) to activate antigen-presenting cells, thereby promoting immune activity within the tumor.

HeLa cells [8] = assay: Western blot analysis of ER stress in HeLa cells treated with MMAE; type: cell-based; details: 100 nM MMAE for 16 hours
Protocol: HeLa cells, a cervical cancer cell line, were cultured in Minimum Essential Medium (MEM) with 10% FBS, 10 mM HEPES, 1 mM sodium pyruvate, 2 mM L-glutamine, penicillin (100U/ml), and streptomycin (100 μg/ml). HeLa cells were treated with 100 nM MMAE for 16 hours and harvested in radioimmunoprecipitation assay buffer (RIPA) buffer for western blot analysis. […] Severe ER stress is a prerequisite to the exposure of pro-phagocytic signals on the surface of tumor cells, and can be indicated by activation of JNK signaling by phosphorylated IRE1.

advanced cervical cancer [9] = details: in combination with chemotherapy; cited from earlier work
[10] = managed with interruptions of pembrolizumab, corticosteroids and/or other supportive care; cited from earlier work
[11] = tested on: MDA-MB-231 cells (breast adenocarcinoma); assay: MDA-MB-231 xenograft model in humanized NSG mice; type: in vivo; details: pembrolizumab alone, first dose 10 mg/kg, then 5 mg/kg every five days, IP
Protocol: Mice were subcutaneously inoculated with 5×10^6 MDA-MB-231 cells (breast adenocarcinoma; American Tissue Culture Collection (ATCC), cat. no. HTB-26), in 100 μL phosphate-buffered saline (PBS). Before inoculation, cells were cultured in DMEM with high glucose and HEPES without L-glutamine (Lonza, cat. no. BE12-[…]), 10% (v/v) donor bovine serum with iron New Zealand Origin (Thermo Fisher Scientific, DBSI, cat. no. 10371-029), 2 mM L-glutamine (Lonza, cat. no. BE17-[…]), 1 mM Na-pyruvate (Lonza, cat. no. BE13-[…]), MEM non-essential amino acids (Life Technologies, cat. no. 11140) and 1% (v/v) penicillin/streptomycin (Lonza, cat. no. DE17-[…]), in CellSTACK culture chambers (Corning, cat. no. 3313). Tumor size was determined by caliper measurement at least two times a week and tumor volume was calculated as 0.52×length×width^2. […] The first dose of the anti-PD-1 antibody (i.e., pembrolizumab) was 10 mg/kg, followed by 5 mg/kg every five days for a maximum of six treatments. […] The IgG1 isotype control antibody is the b12 antibody which is known to bind to HIV-1 gp120. […] Mice were housed in individually ventilated (IVC) cages, five mice per cage and identified by ear tags. […] Statistical comparison of tumor burden was performed using Mann-Whitney analysis on the last day that all treatment groups were intact. Kaplan-Meier analysis was performed based on tumor volume (>500 mm^3).

advanced cervical cancer [12] = details: Pembrolizumab 200 mg Q3W, 82 patients; cited from earlier work
[13] = compared to IgG1-MMAE ADC or tisotumab alone

## CC[C@H](C)[C@@H]([C@@H](CC(=O)N1CCC[C@H]1[C@H](OC)[C@@H](C)C(=O)N[C@H](C)[C@@H](O)c1ccccc1)OC)N(C)C(=O)[C@@H](NC(=O)[C@@H](NC)C(C)C)C(C)C [MMAE, Monomethyl auristatin E, reference compound] (H-[NMeV]V[Dil][Dolaproine]-X1)
[1]
  ATF4 cleavage (PERK pathway): upregulation of ATF4 cleavage
  phosphorylation of IRE1: detected
  phosphorylation of JNK: increased phosphorylation
HeLa cells [2]
  time until fragmentation and disassembly of the microtubule network, with breakdown of the perinuclear ER lattice: ≤ 2 h
  time until severe ER stress (condensed and mislocalized ER skeleton): ≤ 8 h
T cells
  T cell proliferation (CSFE dilution): drove T cell proliferation
  production of IFNγ: production of T cell specific cytokines such as IL12P70 and IFNγ
  production of IL12p70: production of T cell specific cytokines such as IL12P70 and IFNγ
[3]
  survival after challenge with wild-type tumor cells: increased survival
  tumor growth after challenge with wild-type tumor cells: delayed tumor growth
[4]; FIG. 5A
  ATP release/secretion: drove robust A) ATP secretion; also recorded: specific to tisotumab vedotin ADC and MMAE treatment
[4]; FIG. 5C
  HMGB1 release/secretion: drove robust A) ATP secretion and C) HMGB1 release; also recorded: specific to tisotumab vedotin ADC and MMAE treatment
[5]
  chemotactic and inflammatory mediators from monocyte/macrophages after uptake of dead cells: elicit strong chemotactic and inflammatory mediators
[5]; [13]
  monocyte/macrophage activation, CD86 expression by flow cytometry: drove monocyte/macrophage activations
  release of innate chemokines including MIP 1β: induced release of innate chemokines including MIP 1β
[6]
  ATF4 cleavage (PERK pathway): upregulation of ATF4 cleavage
  phosphorylation of IRE1: detected
  phosphorylation of JNK: increased phosphorylation
HeLa cells [7]
  secretion of ATP: increased secretion of ATP and HMGB1
  secretion of HMGB1: increased secretion of ATP and HMGB1
HeLa cells [8]
  phosphorylation of IRE1: led to phosphorylation of the serine threonine kinase IRE1
  phosphorylation of JNK: elicited severe ER stress by phosphorylation of IRE1 and JNK

## Bevacizumab: an anti-VEGF antibody
Advanced cervical cancer [9]
  overall survival in clinical trials: improved overall survival

## pembrolizumab: anti-PD-1 antibody, a checkpoint inhibitor; heavy chain SEQ ID NO:33 and light chain SEQ ID NO:34 [reference compound]
T cells; 2 mg/ml of pembrolizumab
  T cell proliferation driven by tisotumab vedotin or MMAE killed cells, effect of added pembrolizumab: enhanced
T cells; concomitant pembrolizumab
  production of IFNγ after tisotumab vedotin or MMAE killed cells, effect of added pembrolizumab: increased by concomitant pembrolizumab treatment
  production of IL12p70 after tisotumab vedotin or MMAE killed cells, effect of added pembrolizumab: increased by concomitant pembrolizumab treatment
[10]
  reversibility of immune-related AEs (irAEs): most irAEs were reversible
[11]
  tumor burden as assessed by tumor volume: hardly reduced tumor burden
Advanced cervical cancer [12]
  objective response rate: 12%

## tisotumab: anti-TF antibody 011; heavy chain variable region SEQ ID NO:7, light chain variable region SEQ ID NO:8
T cells
  T cell proliferation (CSFE dilution): did not elicit these responses
  production of IFNγ: did not elicit these responses
  production of IL12p70: did not elicit these responses
